# How the values were obtained:
# [1] = test system: anti-OVA IgM and IgG antibodies; experiment: Rescue experiment of GGPP and GGOH on adjuvant activity; format: in vivo, mice; conditions: for effect of GGPP and GGOH on adjuvant effects: GGPP and GGOH added; for IgG and IgM antibody titers vs PBS control: without addition of GGPP or GGOH
# Method: In particular, we investigated the effect of GGOH and GGPP on the adjuvant activity of simvastatin (HMG-COA reductase inhibitor), TH-Z93 (FPPS inhibitor), and TH-Z145 (GGPPS inhibitor).
# Method: Simvastatin, TH-Z93 and TH-Z145 were formulated at a concentration of 10 mg/ml; the concentration of OVA antigen was 20 mg/ml; and GGOH and GGPP were formulated into a series of solutions at concentrations of 200 mg/ml, 100 mg/ml, 40 mg/ml and 20 mg/ml, respectively. For the experimental group, on the one hand, titers of antibodies were measured when immunization was performed without adding GGOH or GGPP while only mixing 10 μl of test compound and 5 μl of OVA antigen. On the other hand, titers of antibodies were measured when immunization was performed after adding GGOH or GGPP; specifically, 10 μl of test compound, 5 μl of OVA antigen and 5 μl of each concentration of GGOH or GGPP (total volume of 20 μl) were mixed and used for immunization in mice by injection at the sole of the right feet. Mice in the control group were treated with PBS and the antigen only, without addition of test compounds and GGOH or GGPP. On Day 7 and Day 14 after immunization, blood was taken from the mice's orbit, and 100 μl was taken for each mouse. The obtained blood was left at 4° C. overnight. The serum was separated, and titers of anti-OVA IgM and IgG antibodies in the serum were determined.
# [2] = test system: anti-OVA IgG antibody affinity; experiment: Antibody affinity by sodium thiocyanate disruption; format: in vivo, mice; conditions: for antibody affinity vs PBS control: IC50 of sodium thiocyanate, after boost
# Text: Antibody affinity refers to the strength of an antibody to bind to the epitope of an antigen, which is a very important indicator when evaluating an antibody. It is due to gene mutations of antibody-forming cells themselves and selective activation of antigens for B cell clones. The functional state of the body is the result of long-term evolution and continuous adaptation to the external environment, which is of great significance to the defense of the body and the maintenance of autoimmune monitoring. In an in vitro test, the affinity of an antibody is determined by disrupting the antigen-antibody binding by sodium thiocyanate. The determination of antibody affinity is based on the fact that sodium thiocyanate can disrupt the binding of antigen and antibody, and the stronger the affinity of the antibody, the higher the concentration of sodium thiocyanate is required to dissociate the antigen and antibody. From another aspect if the affinity of the antibody is stronger, the effect of an adjuvant is better.
# The OVA protein was diluted to a concentration of 2 μg/ml with a carbonate solution of pH 9.6, coated in a 96-well ELISA plate at 50 μl per well, and left at 4° C. overnight. The ELISA plate was washed five times with PBS containing 0.05% Tween 20, blocked with 1% BSA solution at 200 μl per well, and incubated at room temperature for 2 h. The ELISA plate was washed five times with PBST and the serum with certain dilution was added. Specifically, for the dilutions, the PBS group was not diluted, the simvastatin group was diluted 16-fold, the TH-Z80 group was diluted 16-fold, the TH-Z93 group was diluted 32-fold, the TH-Z145 group was diluted 16-fold, the imiquimod group was diluted 8-fold, the PEI group was diluted 8-fold, the aluminum adjuvant group was diluted 8-fold, the MF59 group was diluted 16-fold, the incomplete Freund's adjuvant group was diluted 32-fold, and the complete Freund's adjuvant group was diluted 64-fold. Before adding sodium thiocyanate, the amount of anti-OVA IgG type antibody in the diluted serum was the same, 50 μl per well, and incubated for 2 h at room temperature. After washing the ELISA plate with PBST for five times, 10 mM, 9.5 mM, 9 mM, 8.5 mM, 8 mM, 7.5 mM, 7 mM, 6.5 mM,6 mM, 5.5 mM, 5 mM, 4.5 mM, 4 mM, 3.5 mM, 3 mM, 2.5 mM, 2 mM, 1.5 mM, and 0.5 mM sodium thiocyanate were added to each well at 50 μl per well, and incubated for 30 min at room temperature. After washing the ELISA plate for five times with PBST, HRP-labeled goat-anti-mouse antibody was added to each well at 50 μl per well and incubated for 45 min at room temperature. The ELISA plate was washed for five times with PBST, and a color developing solution of sodium citrate OPD was added. After 10 min of color development in the dark, sulfuric acid was added to terminate the reaction. According to the readings of ELIASA, the Prism software was used to calculate the IC50 of sodium thiocyanate. The higher the IC50 value, the stronger the antibody affinity produced by the immunization.
# In an in vitro test, the affinity of the antibody was determined by disrupting the binding of the antigen to the antibody by NaSCN. The procedure was as follows: a 96-well ELISA plate was coated with 2 μg/ml OVA, and blocked with 2% BSA. […] Absorbance values at OD 490 nm were read. The IC50 values of NaSCN inhibition were calculated. […]
# [3] = test system: B lymphocytes, T lymphocytes, macrophages and dendritic cells in lymph nodes; experiment: Recruitment of cells in lymph nodes after immunization; format: in vivo, mice; conditions: 24 hours after subcutaneous immunization, vs Ctrl and PBS
# Method: Method: Following an similar procedure of example 1, OVA was used as antigen and three inhibitor compounds, simvastatin, TH-Z80, and TH-Z145 were added as adjuvants, respectively. The OVA antigen and adjuvant were mixed at 1:1 and used for immunizing mice by subcutaneous injection. 24 hours after immunization, inguinal lymph nodes ipsilateral to the immunization were removed and separated through a 100 mesh screen into single-cell suspension. Flow cytometry was used to determine changes of the proportions and numbers of B lymphocytes, T lymphocytes, macrophages and dendritic cells in lymph nodes. The marker of the B lymphocyte was B220, the marker of the T lymphocyte was CD3, the markers of the macrophage were CD11b and F4/80, and the marker of the dendritic cell was CD11c.
# [4] = test system: Plasmodium falciparum 3D7; experiment: Test of plasmodium activity (SYBR-GREEN1); format: cell-based; conditions: infected erythrocytes, 72 hours; read-out: Malaria (IC50/μM)
# Method: Plasmodium falciparum 3D7 was cultured with […] medium mixed with 10% human O-type blood serum and 25 mM HEPES. The cultivation process was maintained in a carbon dioxide incubator under 5% carbon dioxide. In vitro drug testing experiments were performed on a 96-well plate. The test drug was dissolved in PBS and pre-diluted with complete medium. Infected erythrocytes were cultured in triplicate for 72 hours in 3-fold serial dilutions of drug. Then an equal amount of SYBR-GREEN1 was added to each well. The detection was then performed at 485 nm for excitation light and 538 nm for emitted light. […] ORIGIN 8.0 software was used to plot and fit.
Compound,effect of GGPP and GGOH on adjuvant effects [1],IgG and IgM antibody titers vs PBS control [1],antibody affinity vs PBS control [2],"proportions and numbers of B lymphocytes, T lymphocytes, macrophages and dendritic cells in lymph nodes [3]","antibody affinity compared to PBS ([2]; NaSCN IC50, 7 days after boosting)",IC50 [4]
"CCCCCCOc1ccnc(NC(P(=O)(O)O)P(=O)(O)O)c1 [TH-Z93, (((4-(hexyloxy)pyridin-2-yl)amino)methylene)bisphosphonic acid]",effectively inhibit adjuvant effects,significantly higher,significantly high titers and antibody affinities,–,–,–
CCCCCCOc1ccc2c(c1)ncn2CC(O)(P(=O)(O)O)P(=O)(O)O [TH-Z80],–,–,significantly high titers and antibody affinities,significantly increased,significantly increased the affinity,1.76 µM
CCCCCCCOc1ccc2c(c1)ncn2CC(O)(P(=O)(O)O)P(=O)(O)O [TH-Z152],–,–,–,–,–,1.21 µM
CCCCCCCCOc1ccc2c(c1)ncn2CC(O)(P(=O)(O)O)P(=O)(O)O [TH-Z81],–,–,–,–,–,1.95 µM
CCCCCCCCCOc1ccc2c(c1)ncn2CC(O)(P(=O)(O)O)P(=O)(O)O [TH-Z153],–,–,–,–,–,1.28 µM
"CCC(C)(C)C(=O)O[C@H]1C[C@@H](C)C=C2C=C[C@H](C)[C@H](CC[C@@H]3C[C@@H](O)CC(=O)O3)[C@H]21 [simvastatin, reference compound]",effectively inhibit adjuvant effects,significantly higher,significantly high titers and antibody affinities,significantly increased,–,–
"(2-(3-(octyloxy)phenyl)ethane-1,1-diyl)bisphosphonic acid [TH-Z145]",effectively inhibit adjuvant effects,significantly higher,significantly high titers and antibody affinities,significantly increased,–,–

# — US20250367283A1, “MEVALONATE PATHWAY INHIBITOR AS HIGHLY-EFFICIENT VACCINE ADJUVANT” (Tsinghua University, priority 2015, published 2025)
